Experiments:
[1] = system: cholesterol level in the serum; assay: effect of reducing a lipid level in blood (serum cholesterol) in hamsters fed diet containing 1% cholesterol and 0.5% cholic acid; format: in vivo, golden hamster (male); conditions: percent inhibition of serum cholesterol relative to control, 1 mg/10 ml water/kg orally once a day, blood taken on fifth day 3 h after final administration; for inhibition in vivo at 1 mg/kg: Mesocricetus auratus, po, once a day, read-out: Reduction of Cholesterol in Blood
Procedure: The effect of reducing a lipid level in blood by the action of the compounds according to the present invention was determined as follows:
Male golden hamsters weighing from 80 to 100 g were randomly divided into groups. The hamsters were first fed standard laboratory diets (solid feed MF-1 for mouse/rat/hamster, manufactured by Oriental yeast Industries, KK) for 3 days. Then, they were fed the experimental diet containing 1% cholesterol and 0.5% cholic acid ad libitum. At the same time, the compounds of the invention formulated in a shown dose (1 mg/10 ml water/kg) were administrated to the hamsters orally once a day at a determined time. Water was administrated orally to the hamsters of control group in an amount of 10 ml per 1 kg of body weight. On fifth day of administrating the compounds, the hamsters were anesthetized with nembutal (Nembutal injection, manufactured by Dainabbot) three hours after the final administration of the test compound, and a blood sample was taken from abdominal cava. The serum was separated from the sample by centrifuging.
The cholesterol level in the serum was determined by using a blood cholesterol measuring kit, Determina-TC5 manufactured by Kyowa Medix Co. The results are represented by percent inhibition (%) of cholesterol level in serum relative to that of the control group, and shown in the following Table 20.

[2] = target: T1, ACAT (Mesocricetus auratus, UniProt A0A1U8BU94); assay: ACAT inhibitory action (cholesteryl oleate formation from radio-labelled oleoyl coenzyme A, liver microsome); format: biochemical; conditions: hamster liver microsome; inhibition of cholesteryl oleate formation
T1 construct: each tissue specimen containing hamster liver microsome; from tissue; host or cells: hamster liver microsomes
T1 sequence (A0A1U8BU94 1-521): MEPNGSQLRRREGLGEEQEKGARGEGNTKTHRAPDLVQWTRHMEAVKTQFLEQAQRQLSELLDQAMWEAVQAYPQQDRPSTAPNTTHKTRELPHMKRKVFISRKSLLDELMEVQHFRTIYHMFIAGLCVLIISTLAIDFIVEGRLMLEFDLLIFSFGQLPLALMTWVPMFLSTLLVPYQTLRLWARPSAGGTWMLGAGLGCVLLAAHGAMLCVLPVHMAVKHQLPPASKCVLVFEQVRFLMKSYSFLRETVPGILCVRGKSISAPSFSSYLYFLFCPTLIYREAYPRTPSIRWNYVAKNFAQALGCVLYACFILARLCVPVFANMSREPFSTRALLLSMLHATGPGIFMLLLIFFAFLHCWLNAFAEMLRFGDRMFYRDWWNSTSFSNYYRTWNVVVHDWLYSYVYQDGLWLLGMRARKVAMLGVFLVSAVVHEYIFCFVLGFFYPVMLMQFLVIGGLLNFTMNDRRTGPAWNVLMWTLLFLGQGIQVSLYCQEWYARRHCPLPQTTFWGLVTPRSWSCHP
Procedure: The ACAT inhibitory action of the compounds of this invention was determined by the following method.
ACAT activity was determined by measuring the amount of ratio-active cholesteryl oleate formed from radio-labelled oleoyl coenzyme A in each tissue specimen containing hamster liver microsome. The reduction rates (%) in the amount of formation of cholesteryl oleate by the administration of the test compound in various concentrations (μM) as compared with as compared with the amount of formation in the control group to which no test compound was administrated were measured. The ACAT inhibitory action was evaluated by IC50, the concentration of the test compound necessary for inhibiting the activity of the enzyme by 50%, obtained from the reduction rates.

[3] = system: cholesterol level in the serum; assay: effect of reducing a lipid level in blood (serum cholesterol) in hamsters fed diet containing 1% cholesterol and 0.5% cholic acid; format: in vivo, golden hamster (male); conditions: Mesocricetus auratus, po, 120 h, comparison compound; dose of 5 mg/kg p.o.; read-out: Reduction of Cholesterol in Blood

Row | IC50 [2] [nM] | SMILES | inhibition in vivo at 1 mg/kg [1] [%] | further results
1 | – | CCCCC(CNC(=O)Nc1c(C(C)C)cccc1C(C)C)c1ccc2c(c1)OCO2 (single isomer, unassigned) [Example 62] | – | Reduction of Cholesterol in Blood [1]: 33%
2 | 5 | CCCCCC(CNC(=O)Nc1c(C(C)C)cccc1C(C)C)c1cccc2c1OCO2 (single isomer, unassigned) [Example 63] | – | Reduction of Cholesterol in Blood [1]: 56%
3 | 12 | CCCCCC(CNC(=O)Nc1c(C(C)C)cccc1C(C)C)c1cccc2c1OCO2 (single isomer, unassigned) [Example 64] | – | Reduction of Cholesterol in Blood [1]: 27%
4 | 12 | CCCCC(CNC(=O)Nc1c(C(C)C)cccc1C(C)C)c1cccc2c1CCCC2 (single isomer, unassigned) [Example 65] | 44 | –
5 | 28 | CCCCC(CNC(=O)Nc1c(C(C)C)cccc1C(C)C)c1cccc2c1CCCC2 (single isomer, unassigned) [Example 66] | – | Reduction of Cholesterol in Blood [1]: 40%
6 | – | CCCCC(CNC(=O)Nc1c(C(C)C)cccc1C(C)C)c1ccc2c(c1)OCO2 (single isomer, unassigned; (+)) [Example 61, (+)-1-(2-(3,4-methylenedioxyphenyl)-hexyl)-3-(2,6-diisopropylphenyl)urea] | 45 | –
7 | – | CC(C)c1cccc(C(C)C)c1NC(=O)NCC(c1ccccc1)C(C)(C)C (stereo not shown) [Comparison, 1-(3,3-dimethyl-2-phenylbutyl)-3-(2,6-diisopropylphenyl)urea] | – | inhibition in vivo at 5 mg/kg [3]: 5%
8 | – | CCCCCC(CNC(=O)Nc1c(C(C)C)cccc1C(C)C)c1cccc2c1OCO2 (stereo not shown) [Example 1, 1-(2-(2,3-methylenedioxyphenyl)heptyl)-3-(2,6-diisopropylphenyl)urea] | 34 | –
9 | 85 | CCC(CNC(=O)Nc1c(C(C)C)cccc1C(C)C)c1cccc2c1OCO2 (stereo not shown) [Example 3] | – | –
10 | 28 | CC(C)c1cccc(C(C)C)c1NC(=O)NCC(c1cccc2c1OCO2)C(C)C (stereo not shown) [Example 4] | – | –
11 | 56 | CCCC(CNC(=O)Nc1c(C(C)C)cccc1C(C)C)c1cccc2c1OCO2 (stereo not shown) [Example 5] | – | –
12 | – | CCCCC(CNC(=O)Nc1c(C(C)C)cccc1C(C)C)c1cccc2c1OCO2 (stereo not shown) [Example 6] | 40 | –
13 | 11 | CCCCCCC(CNC(=O)Nc1c(C(C)C)cccc1C(C)C)c1cccc2c1OCO2 (stereo not shown) [Example 8] | – | –
14 | 86 | CCCCCCCC(CNC(=O)Nc1c(C(C)C)cccc1C(C)C)c1cccc2c1OCO2 (stereo not shown) [Example 9] | – | –
15 | 32 | CCC(CC)(CNC(=O)Nc1c(C(C)C)cccc1C(C)C)c1cccc2c1OCO2 [Example 11] | 31 | –
16 | – | CC(C)c1cccc(C(C)C)c1NC(=O)NCC1(c2cccc3c2OCO3)CCCC1 [Example 12] | 10 | –
17 | – | CC(C)c1cccc(C(C)C)c1NC(=O)NCC1(c2cccc3c2OCO3)CCCCC1 [Example 13] | 19 | –
18 | – | CCCCC(CNC(=O)Nc1c(C(C)C)cccc1C(C)C)c1cccc2c1OCCO2 (stereo not shown) [Example 14] | 30 | –
19 | – | CCCC(CNC(=O)Nc1c(C(C)C)cccc1C(C)C)c1ccc2c(c1)OCO2 (stereo not shown) [Example 16] | 34 | –
20 | 9 | CCCCC(CNC(=O)Nc1c(C(C)C)cccc1C(C)C)c1ccc2c(c1)OCO2 (stereo not shown) [Example 17] | 34 | –

Row | IC50 [2] [nM] | SMILES | inhibition in vivo at 1 mg/kg [1] [%] | further results
21 | – | CCCCCC(CNC(=O)Nc1c(C(C)C)cccc1C(C)C)c1ccc2c(c1)OCO2 (stereo not shown) [Example 18] | 33 | –
22 | – | CCCCCCC(CNC(=O)Nc1c(C(C)C)cccc1C(C)C)c1ccc2c(c1)OCO2 (stereo not shown) [Example 19] | 23 | –
23 | – | CC(C)CCCC(CNC(=O)Nc1c(C(C)C)cccc1C(C)C)c1ccc2c(c1)OCO2 (stereo not shown) [Example 20] | 46 | –
24 | 13 | CCCCC(CNC(=O)Nc1c(C(C)C)cccc1C(C)C)c1ccc2c(c1)OCCO2 (stereo not shown) [Example 23] | 39 | –
25 | – | CCCCCC(CNC(=O)Nc1c(C(C)C)cccc1C(C)C)c1ccc2c(c1)OCCO2 (stereo not shown) [Example 24] | 41 | –
26 | – | CCCCCCC(CNC(=O)Nc1c(C(C)C)cccc1C(C)C)c1ccc2c(c1)OCCO2 (stereo not shown) [Example 25] | 39 | –
27 | – | CCCCC(CNC(=O)Nc1c(C(C)C)cccc1C(C)C)c1ccc2c(c1)OCCCO2 (stereo not shown) [Example 26] | 40 | –
28 | 5 | CCCCCC(C)(CNC(=O)Nc1c(C(C)C)cccc1C(C)C)c1cccc2c1OCO2 (stereo not shown) [Example 29] | 61 | –
29 | – | CCCC(CCC)(CNC(=O)Nc1c(C(C)C)cccc1C(C)C)c1cccc2c1OCO2 [Example 30] | 18 | –
30 | – | CCCCCC(CCCCC)(CNC(=O)Nc1c(C(C)C)cccc1C(C)C)c1cccc2c1OCO2 [Example 31] | 16 | –
31 | 38 | CCCCCC(CNC(=O)Nc1c(C)cccc1C)c1cccc2c1OCO2 (stereo not shown) [Example 33, 1-(2-(2,3-methylenedioxyphenyl)heptyl)-3-(2,6-dimethylphenyl)urea] | – | –
32 | 34 | CCCCCC(CNC(=O)Nc1c(Cl)cccc1Cl)c1cccc2c1OCO2 (stereo not shown) [Example 34, 1-(2-(2,3-methylenedioxyphenyl)heptyl)-3-(2,6-dichlorophenyl)urea] | – | –
33 | 32 | CCCCCC(CNC(=O)Nc1c(CC)cccc1CC)c1cccc2c1OCO2 (stereo not shown) [Example 35] | – | –
34 | 26 | CCCCCC(CNC(=O)Nc1c(CC)cccc1C(C)CC)c1cccc2c1OCO2 (stereo not shown) [Example 36] | – | –
35 | 20 | CCCCCC(CNC(=O)Nc1c(OC)cccc1OC)c1cccc2c1OCO2 (stereo not shown) [Example 48, 1-(2-(2,3-methylenedioxyphenyl)heptyl)-3-(2,6-dimethoxyphenyl)urea] | – | –
36 | – | CCCCC(CNC(=O)Nc1c(C(C)C)cccc1C(C)C)c1cc(OC)c2c(c1)OCO2 (stereo not shown) [Example 52, 1-(2-(3,4-methylenedioxy-5-methoxyphenyl)hexyl)-3-(2,6-diisopropylphenyl)urea] | 15 | –
37 | – | CCCCCC(CNC(=S)Nc1c(C(C)C)cccc1C(C)C)c1cccc2c1OCO2 (stereo not shown) [Example 54, 1-(2-(2,3-methylenedioxyphenyl)heptyl)-3-(2,6-diisopropylphenyl)thiourea] | 21 | –
38 | – | CCCCC(CNC(=O)Nc1c(C(C)C)cccc1C(C)C)c1cccc2c1CCCC2 (stereo not shown) [Example 55, 1-(2-(2,3-tetramethylenephenyl)hexyl)-3-(2,6-diisopropylphenyl)urea] | 35 | –
39 | 4 | CCCCCC(CNC(=O)Nc1c(C(C)C)cccc1C(C)C)c1cccc2c1CCCC2 (stereo not shown) [Example 56] | 42 | –
40 | – | CC(C)CCCC(CNC(=O)Nc1c(C(C)C)cccc1C(C)C)c1cccc2c1CCCC2 (stereo not shown) [Example 57] | 38 | –

Source: US5202351A, “1-phenylalkyl-3-phenylurea derivative” (Mitsubishi Kasei Corporation, priority 1990, dated 1993)
